The record followed here is US9084423B2, “Inhibition of bacterial biofilms with imidazole derivatives” (North Carolina State University, priority 2007, dated 2015).

For test [1], the system named is P. aeruginosa strain PAO1. The test is described as follows: Static biofilm inhibition assay (crystal violet), PAO1. Type of test: cell-based, Pseudomonas aeruginosa. As to conditions: for inhibition at 500 µM / IC50: Pseudomonas aeruginosa, PAO1; for IC50: inhibition of biofilm formation, crystal violet, 24 hours. The protocol:
Each compound was assayed for the ability to inhibit the formation of P. aeruginosa biofilms. […] We employed a standard crystal violet reporter assay to assess for the formation of biofilms. Briefly, P. aeruginosa strain PAO1 was allowed to form biofilms in a multi-well plate in the absence or presence of our compounds. Planktonic (or free growing) bacteria were then removed, wells washed vigorously, and crystal violet added. Crystal violet stains the remaining bacteria which, following ethanol solubilization, can be quantitated by spectrophotometry (A540).
(§1) An overnight culture of the bacterial strain being screened against was subcultured at an OD600 of 0.1 into the media used (listed below with strain) and then pipetted into test tubes along with a predetermined concentration of our compound of interest. Test tubes were then poured into tilted Petri dishes and 100 μL of media, strain and compound were then transferred into 96-well PVC microtiter plates. These microtiter plates were then covered, wrapped in Saran™ Wrap polyethylene film (S.C. Johnson, Racine, Wis.) and allowed to incubate at 37° C. for 24 hours. After that time, the medium was discarded and the plates were thoroughly washed with water. The remaining biofilm that was formed during incubation was stained with 100 μL of a 0.1% crystal violet solution and allowed to incubate at room temperature for 30 minutes. After 30 minutes, the crystal violet was discarded and washed thoroughly again with water. The remaining crystal violet that had stained the biofilm in the inside walls of the 96-well PVC plates was solubilized with 200 μL of 95% ethanol. The quantification of biofilm formation was accomplished by transferring 125 μL of the ethanol solution into a polystyrene microtiter dish, which was read by spectrophotometry (A540). After the background has been subtracted from each row, a percent inhibition can be calculated by dividing the amount of crystal violet in wells that contained compound by the amount of crystal violet in wells that contained bacteria only. Each concentration reported during the course of this study was repeated two to five times with each of those biofilm inhibition assays being done in 6 replicates each.
(§2) An overnight culture of the wild type strain was subcultured at an OD600 of 0.10 into LBNS along with a predetermined concentration of the small molecule to be tested for biofilm inhibition. Samples were then aliquoted (100 μL) into the wells of a 96-well PVC microtiter plate. The microtiter dishes were covered and sealed before incubation under stationary conditions at 37° C. for 24 hours. After that time, the medium was discarded and the plates thoroughly washed with water. The wells were then inoculated with a 0.1% aqueous solution of crystal violet (100 μL) and allowed to stand at ambient temperature for 30 minutes. Following another thorough washing with water the remaining stain was solubilized with 200 μL of 95% ethanol. Biofilm inhibition was quantitated by measuring the OD540 for each well by transferring 125 μL of the ethanol solution into a fresh polystyrene microtiter dish for analysis.
(§3) To examine each compound's ability to inhibit the formation of Pseudomonas aeruginosa biofilms, PAO1 and PA14 were employed as the target bacterial strains using a crystal violet reporter assay. G. A. O'Toole, R. Kolter, Mol. Microbiol. 1998, 28, 449. All compounds were initially screened at 500 μM for anti-biofilm activity.
An overnight culture of the wild type strain was subcultured at an OD600 of 0.10 into LBNS along with a predetermined concentration of the small molecule to be tested for biofilm inhibition. Samples were then aliquoted (100 μL) into the wells of a 96-well PVC microtiter plate. The microtiter dishes were covered and sealed before incubation under stationary conditions at 37° C. for 24 hours, After that time, the medium was discarded and the plates thoroughly washed with water. […]

In another test the test system is P. aeruginosa PA14. The test can be described thus: Static biofilm inhibition assay (crystal violet), PA14. The test is classed as cell-based, Pseudomonas aeruginosa. As to conditions: for inhibition at 500 µM / IC50: Pseudomonas aeruginosa; for inhibition at 500 µM: PA14, 24 h; for IC50: PA14, inhibition of biofilm formation, crystal violet, 24 hours. The protocol: as §1, §2, §3
as §2, with “for 24 hours, After that” for “for 24 hours. After that”, “violet (100 pt) and allowed” for “violet (100 μL) and allowed”

The structures appear in SMILES notation. Counter-ions that a name gives are not always drawn. Bounds are passed on as bounds.

For `Nc1nc(CCCNC(=O)c2cc(Br)c(Br)[nH]2)c[nH]1` [Compound 19, 4,5-dibromo-1H-pyrrole-2-carboxylic acid [3-(2-amino-1H-imidazol-4-yl)-propyl]-amide hydrochloride], the inhibition at 500 µM (in test [1]; with P. aeruginosa PA14) was below 70% throughout.

Turning to `O=C(NCCc1c[nH]cn1)c1cc(Br)c[nH]1` [Compound 35, 4-bromo-1H-pyrrole-2-carboxylic acid [2-(1H-imidazol-4-yl)-ethyl]-amide hydrochloride], the inhibition (as a rule, the share of the control response that was lost under treatment) at 500 µM in test [1] was found to be 46%; in the test on P. aeruginosa PA14, 43%.

Consider `O=C(NCCc1c[nH]cn1)c1ccc[nH]1` [Compound 34, 1H-pyrrole-2-carboxylic acid [2-(1H-imidazol-4-yl)-ethyl]amide hydrochloride], for which the inhibition at 500 µM was 42% in test [1] and 31% with P. aeruginosa PA14.

As for `Cn1c(C(=O)NCCCc2c[nH]c(=S)[nH]2)cc(Br)c1Br` [Compound 49, 4,5-dibromo-1-methyl-pyrrole-2-carboxylic acid [3-(2-thioxo-2,3-dihydro-1H-imidazol-4-yl)-propyl]-amide], the inhibition at 500 µM is 46% in test [1] and 38% in the test on P. aeruginosa PA14.

As for `Cn1cc(Br)cc1C(=O)NCCCc1c[nH]c(=S)[nH]1` [Compound 48, 4-bromo-1-methyl-pyrrole-2-carboxylic acid [3-(2-thioxo-2,3-dihydro-1H-imidazol-4-yl)-propyl]-amide], the values for the inhibition at 500 µM (in test [1]; with P. aeruginosa PA14) were 41% and 57%, respectively.

For `Cn1cccc1C(=O)NCCc1c[nH]cn1` [Compound 38, 1-methyl-pyrrole-2-carboxylic acid [2-(1H-imidazol-4-yl)-ethyl]amide hydrochloride], the figures for the inhibition at 500 µM (in test [1]; in the test with P. aeruginosa PA14) were 29% and 34%, respectively.

With `O=C(NCCc1c[nH]cn1)c1cc(Br)c(Br)[nH]1` [Compound 36, 4,5-dibromo-1H-pyrrole-2-carboxylic acid [2-(1H-imidazol-4-yl)-ethyl]-amide hydrochloride], the inhibition at 500 µM in test [1] came to 73%; in the test on P. aeruginosa PA14, 69%.

On to `O=C(NCCCc1c[nH]c(=S)[nH]1)c1cc(Cl)c(Cl)[nH]1` [Compound 46, 4,5-dichloro-1H-pyrrole-2-carboxylic acid [3-(2-thioxo-2,3-dihydro-1H-imidazol-4-yl)-propyl]-amide], for which the values for the inhibition at 500 µM (in test [1]; in the test with P. aeruginosa PA14) were 41% and 38%, respectively.

For `CCCCCCNC(=O)CCCc1c[nH]c(N)n1` [Compound 9, 4-(2-amino-1H-imidazol-4-yl)-N-hexyl-butyramide hydrochloride], the IC50 (as a rule, the concentration at which inhibition is half-maximal) in test [1] was determined as 32.7 ± 6.5 µM; with P. aeruginosa PA14, 39.9 ± 13 µM.

As to `O=C(NCCCc1c[nH]c(=S)[nH]1)c1ccc[nH]1` [Compound 43, 1H-pyrrole-2-carboxylic acid [3-(2-thioxo-2,3-dihydro-1H-imidazol-4-yl)-propyl]-amide], the inhibition at 500 µM worked out at 39% in test [1] and 33% in the test with P. aeruginosa PA14.

Turning to `O=C(NCCc1c[nH]cn1)c1cc(Cl)c(Cl)[nH]1` [Compound 37, 4,5-dichloro-1H-pyrrole-2-carboxylic acid [2-(1H-imidazol-4-yl)-ethyl]-amide hydrochloride], the inhibition at 500 µM in test [1] stood at 33%; with P. aeruginosa PA14, 38%.

In the case of `Cn1cc(Br)cc1C(=O)NCCCc1c[nH]c(N)n1` [Compound 22, 4-bromo-1-methyl-pyrrole-2-carboxylic acid [3-(2-amino-1H-imidazol-4-yl)-propyl]-amide hydrochloride], in test [1], the inhibition at 500 µM stood at 88% and the IC50 came to 348 ± 13 µM. Further, in the test with P. aeruginosa PA14, testing at 500 µM gave an inhibition of 83% and half-maximal inhibition (IC50) required 309 ± 16 µM.

Turning to `Cn1cc(Br)cc1C(=O)NCCc1c[nH]cn1` [Compound 39, 4-bromo-1-methyl-pyrrole-2-carboxylic acid [2-(1H-imidazol-4-yl)-ethyl]amide hydrochloride], the inhibition at 500 µM in test [1] turned out to be 37%; in the test on P. aeruginosa PA14, 21%.

For the molecule `Cn1c(C(=O)NCCC=C2NC(N)=NC2=O)cc(Br)c1Br` [Compound 32, 4,5-dibromo-1-methyl-pyrrole-2-carboxylic acid [3-(2-amino-5-oxo-3,5-dihydro-imidazol-4-ylidene)-propyl]-amide hydrochloride, reference compound], the inhibition at 500 µM (in test [1]; in the test on P. aeruginosa PA14) was below 20% in each case.

In the case of `Cn1cccc1C(=O)NCCCc1c[nH]c(=S)[nH]1` [Compound 47, 1-methyl-pyrrole-2-carboxylic acid [3-(2-thioxo-2,3-dihydro-1H-imidazol-4-yl)-propyl]-amide], the results for the inhibition at 500 µM (in test [1]; in the test with P. aeruginosa PA14) were 27% and 36%, respectively.

As to `Nc1nc(CCCNC(=O)c2cc(Cl)c(Cl)[nH]2)c[nH]1` [Compound 20, 4,5-dichloro-1H-pyrrole-2-carboxylic acid [3-(2-amino-1H-imidazol-4-yl)-propyl]-amide hydrochloride], the inhibition at 500 µM turned out to be 37% in test [1] and 48% in the test with P. aeruginosa PA14.

As for `O=C(NCCCc1c[nH]c(=S)[nH]1)c1cc(Br)c[nH]1` [Compound 44, 4-bromo-1H-pyrrole-2-carboxylic acid [3-(2-thioxo-2,3-dihydro-1H-imidazol-4-yl)-propyl]-amide], the inhibition at 500 µM in test [1] was 28%; in the test with P. aeruginosa PA14, 14%.

As to `Nc1nc(CCCNC(=O)c2cc(Br)c[nH]2)c[nH]1` [Compound 18, 4-bromo-1H-pyrrole-2-carboxylic acid [3-(2-amino-1H-imidazol-4-yl)-propyl]-amide hydrochloride], the inhibition at 500 µM in test [1] stood at 74%; in the test with P. aeruginosa PA14 it was 86%. Besides, the IC50 in test [1] turned out to be 323 ± 30 µM; in the test on P. aeruginosa PA14, 266 ± 23 µM.

In test [1], `Cl.Cn1cccc1C(=O)NCCCc1c[nH]c(N)n1` [Compound 21, 1-methyl-pyrrole-2-carboxylic acid [3-(2-amino-1H-imidazol-4-yl)-propyl]-amide hydrochloride] had an inhibition at 500 µM of 25%. The “inhibition of PA14 biofilm formation (in words)” value in the test on P. aeruginosa PA14 (screen at 500 μM) is “inactive”.

As for `O=C(NCCCc1c[nH]c(=S)[nH]1)c1cc(Br)c(Br)[nH]1` [Compound 45, 4,5-dibromo-1H-pyrrole-2-carboxylic acid [3-(2-thioxo-2,3-dihydro-1H-imidazol-4-yl)-propyl]-amide], the inhibition at 500 µM worked out at 61% in test [1] and 56% in the test on P. aeruginosa PA14.

For `Cl.Nc1nc(CCCNC(=O)c2ccc[nH]2)c[nH]1` [Compound 17, 1H-pyrrole-2-carboxylic acid [3-(2-amino-1H-imidazol-4-yl)-propyl]-amide hydrochloride], the “% Biofilm Inhibition at 500 μM vs PAO1” value in test [1] (500 μM, hydrochloride) is recorded as below 10%. Further, the inhibition at 500 µM in test [1] was below 10%; in the test on P. aeruginosa PA14, 16%.

With `CCCCCCCCNC(=O)CCCc1c[nH]c(N)n1` [Compound 10, 4-(2-amino-1H-imidazol-4-yl)-N-octyl-butyramide hydrochloride], the IC50 in test [1] was determined as 18.4 ± 2.3 µM; in the test on P. aeruginosa PA14 it was 13.3 ± 1.8 µM.
